Test [1] concerns Saccharomyces cerevisiae. The test is described as follows: DNA damaging activity against DNA repair-deficient RS 167N (rad6) yeast assessed as drug concentration required to produce 12 mm zone of inhibition up to 8000 ug/mL. It is filed as functional, organism-based.
For test [2], the system named is Saccharomyces cerevisiae. Nature of the test: DNA damaging activity against DNA repair-deficient RS 188N (RAD+) yeast assessed as drug concentration required to produce 12 mm zone of inhibition up to 8000 ug/mL. The format is functional, organism-based.
The test system of test [3] is Saccharomyces cerevisiae. Nature of the test: DNA damaging activity against DNA repair-deficient RS 322YK (rad 52Y) yeast assessed as drug concentration required to produce 12 mm zone of inhibition up to 8000 ug/mL. The format is functional, organism-based.
The subject of test [4] is Saccharomyces cerevisiae. The test is described as follows: DNA damaging activity against DNA repair-deficient RS 321 yeast assessed as drug concentration required to produce 12 mm zone of inhibition up to 8000 ug/mL. It is filed as functional, organism-based.
The test system of test [5] is Saccharomyces cerevisiae. Nature of the test: DNA damaging activity against DNA repair-deficient RS 322YK (rad 52Y) yeast assessed as drug concentration required to produce 12 mm zone of inhibition. It is filed as functional.
Test [6] deals with Saccharomyces cerevisiae. Nature of the test: DNA damaging activity against DNA repair-deficient RS 321 yeast assessed as drug concentration required to produce 12 mm zone of inhibition. It is filed as functional.
For test [7], the system named is Saccharomyces cerevisiae. The test is described as follows: DNA damaging activity against DNA repair-deficient RS 167N (rad6) yeast assessed as drug concentration required to produce 12 mm zone of inhibition. It is filed as functional.
Test [8] relates to Saccharomyces cerevisiae. Nature of the test: DNA damaging activity against DNA repair-deficient RS 188N (RAD+) yeast assessed as drug concentration required to produce 12 mm zone of inhibition. It is filed as functional.

The values below come from ChEMBL document CHEMBL1158213, “Bioactive steroidal alkaloids from Solanum umbelliferum” (1996).

Activity calls are given as the source filed them. The rule behind the calls is not given here.

Take `C[C@@H]1CC[C@]2(NC1)O[C@H]1C[C@H]3[C@@H]4CC=C5C[C@@H](O[C@@H]6O[C@H](CO)[C@@H](O)[C@H](O)[C@H]6O)CC[C@]5(C)[C@H]4CC[C@]3(C)[C@H]1[C@@H]2C`: the outcome in the test on Saccharomyces cerevisiae [1], with Saccharomyces cerevisiae [2], with Saccharomyces cerevisiae [3] and with Saccharomyces cerevisiae [4] was inactive.
`CC(=O)O[C@H]1CC[C@@]2(C)C(=CC[C@H]3[C@@H]4C[C@@H]5O[C@@]6(CC[C@@H](C)CN6)[C@@H](C)[C@@H]5[C@@]4(C)CC[C@@H]32)C1`: the IC12 in the test on Saccharomyces cerevisiae [5] is 21 µg/mL; in the test on Saccharomyces cerevisiae [6] it was 3 µg/mL; in the test with Saccharomyces cerevisiae [7], 30 µg/mL; in the test with Saccharomyces cerevisiae [8], 15.7 µg/mL.
In the case of `CC[C@@]1(O)C(=O)OCc2c1cc1n(c2=O)Cc2cc3ccccc3nc2-1` [CAMPTOTHECIN], the IC12 stood at 0.9 µg/mL in the test on Saccharomyces cerevisiae [5] and 100 µg/mL in the test on Saccharomyces cerevisiae [8].
In the case of `C[C@@H]1CC[C@]2(NC1)O[C@H]1C[C@H]3[C@@H]4CC=C5C[C@@H](O)CC[C@]5(C)[C@H]4CC[C@]3(C)[C@H]1[C@@H]2C` [SOLASODINE], the IC12 was 5 µg/mL in the test with Saccharomyces cerevisiae [5], 1.9 µg/mL in the test with Saccharomyces cerevisiae [6], greater than 10 µg/mL in the test with Saccharomyces cerevisiae [7] and greater than 6.1 µg/mL in the test with Saccharomyces cerevisiae [8].
In the case of `CC(=O)O[C@H]1CC[C@@]2(C)C(=CC[C@H]3[C@@H]4C[C@@H]5O[C@@]6(CC[C@@H](C)CN6C(C)=O)[C@@H](C)[C@@H]5[C@@]4(C)CC[C@@H]32)C1`, the result in the test on Saccharomyces cerevisiae [1], with Saccharomyces cerevisiae [2], with Saccharomyces cerevisiae [3] and in the test with Saccharomyces cerevisiae [4] was inactive.
For the compound `CC(=O)N1C[C@H](C)CC[C@@]12O[C@H]1C[C@H]3[C@@H]4CC=C5C[C@@H](O)CC[C@]5(C)[C@H]4CC[C@]3(C)[C@H]1[C@@H]2C`, the result in the test on Saccharomyces cerevisiae [1], in the test on Saccharomyces cerevisiae [2], with Saccharomyces cerevisiae [3] and in the test with Saccharomyces cerevisiae [4] was inactive.
